In one series the test system is Male Sprague-Dawley rats. Description: antinociceptive tests: tail flick (tail immersion) test and paw pressure test. Type of series: in vivo. The settings on record: for degree of analgesia: intraperitoneally administered, codeine 5 mg/Kg compared with compound of example 26. The text has this: The compounds of the invention may be compared with the unmodified parent opiates in standard antinociceptive tests, i.e. in terms of potency and duration of action. For example, phamacological tests may be effected to examine the effects of the compounds of the invention on suppressing pain associated to nocius stimuli induced in laboratory animals. Thus, these compounds can be tested by measuring the time treated animals are insensitive to a given painful stimuli.
In spite of the different classes among the compounds of the invention which can be appreciated in accordance to their chemical structure, all are pain-related substances and therefore can be examined on the tail immersion and paw pressure tests as follows.
Male Sprague-Dawley rats weighing 200 g are used. They are housed singly in a room with controlled temperature 21 °C on a 12h light-dark cycle and given free access to food and water.
The tail flick test, is conducted as described by D'Amour F.E. and Smith D.L. in A method for determining loss of pain sensations, J.Pharmacol. Exp. Ther. 72,74, 1941.
Mechanical nociceptive thresholds are determined by the paw pressure test on the left hind paw as described in the literature (Randall L.O. and Selito J.J. A method for measurement of analgesic activity on inflamed tissue, Arch. Int. Pharmacodyn. Ther. 1957, 11, 409-419.). Pain thresholds are measured with an analgesymeter. The apparatus is set up to apply a force of 0-1000 g increasing from zero at a rate of 64 g/s. The nociceptive threshold is taken as the point at which the rat vocalize or struggle vigorously.

The conditions of series [1]: blood of patients taking morphine; cited from earlier work.
The conditions of series [2]: cited from earlier work; for analgesic activity: compared with the parent drug morphine.

`CCCCCCCCNC(=O)[C@H]1O[C@@H](Oc2ccc3c4c2O[C@H]2[C@@H](O)C=C[C@H]5[C@@H](C3)N(C)CC[C@@]452)[C@H](O)[C@@H](O)[C@@H]1O` [Example 1, 3-Morphinyl n-octyl-(β-D-glucopyranosyl)-uronamide acetate] had an analgesia in the series with Male Sprague-Dawley rats (intraperitoneal administration, dosis of 0.1 mg/Kg, maximal antinociceptive response) of 100%.

In the case of `COc1ccc2c3c1O[C@H]1[C@@H](O[C@@H]4O[C@H](CO)[C@@H](O)[C@H](O)[C@H]4O)C=C[C@H]4[C@@H](C2)N(C)CC[C@@]341` [Example 26, 6-Codeinyl-β-D-glucopyranoside acetate], the degree of analgesia result with Male Sprague-Dawley rats is recorded as “the same degree of analgesia”.

For `CN1CC[C@]23c4c5ccc(O[C@@H]6O[C@H](C(=O)O)[C@@H](O)[C@H](O)[C@H]6O)c4O[C@H]2[C@@H](O)C=C[C@H]3[C@H]1C5` [Example M3G, Morphine 3-glucuronide], the analgesia in the series with Male Sprague-Dawley rats (intraperitoneal administration, dosis of 1 mg/Kg, same effect as morphine 5 mg/Kg) is reported as 65-75%. For the same molecule, the “concentration in blood relative to morphine” value in series [1] is “approximately 20 fold”. Moreover, the analgesic activity result in series [2] is listed as “not analgesic”.

As for `CN1CC[C@]23c4c5ccc(O)c4O[C@H]2[C@@H](O[C@@H]2O[C@H](C(=O)O)[C@@H](O)[C@H](O)[C@H]2O)C=C[C@H]3[C@H]1C5` [Example M6G, Morphine 6-glucuronide], the “concentration in blood relative to morphine” value in series [1] is “two fold higher than morphine”. Further, in series [2], the analgesic activity entry is reported as “several times more active than the parent drug”. Also, the “analgesic activity relative to morphine” value in series [2] (injected intrathecally) is recorded as “much more active than morphine”.

In the case of `COc1ccc2c3c1O[C@H]1[C@@H](O)C=C[C@H]4[C@@H](C2)N(C)CC[C@@]341` [codeine], the degree of analgesia result with Male Sprague-Dawley rats is recorded as “the same degree of analgesia as compound of example 26”.

With `CN1CC[C@]23c4c5ccc(O)c4O[C@H]2[C@@H](O)C=C[C@H]3[C@H]1C5` [morphine], the analgesia with Male Sprague-Dawley rats (rat, in vivo, ip, 5 mg/kg) was 65-75%.

Values taken from patent EP0816375A1, “GLYCOCONJUGATES OF OPIATED SUBSTANCES” (ROLABO SL, priority 1995, dated 1997).
